Data from patent publication US6355616B1, “Derivative compounds derived from or based on bactericidal/permeability-increasing protein” (priority 1999, dated 2002).

Tests used:
[1] = test system: MDCK cells; experiment: In vitro oral absorption screening, transepithelial transport across MDCK cell monolayers; format: in vitro ADME, canine
Procedure: For these experiments, peptide-based constructs are screened for potential oral absorption in in vitro screening assays using MDCK and/or CACO-2 cells. Briefly, cultured monolayers of Madin-Derby canine kidney epithelial (MDCK) cells (ATCC Accession No. CCL-34) and/or CACO-2 (Human colon carcinoma) cells [Audus, K. L., et al. Phar. Res., 7:435-451 (1990) are grown upon collagen-coated, permeable-filter supports (Becton Dickinson, Mountain View, Calif.). The cells are grown to confluency and allowed to differentiate (e.g., about 3 days for MDCK cells or about 21 days for CACO-2 cells). The integrity of the monolayers is determined by measuring the transepithelial resistance. The cells are incubated with a peptide-based construct on the apical side for 2.5 hours in MDCK or CACO-2 screening. The transepithelial transport of the construct is measured by quantitative HPLC analysis of the incubation media on the basolateral side of the cells (forward transport). Radiolabelled mannitol and/or cortisone are used as positive controls. In addition, the efflux of the construct is measured by quantitative HLPC analysis of the incubation media on the apical side of the cells. This follows incubation of the cells with construct on the basolateral side for 2.5 hours. […]
Following the days post seeding, the cells are ready for transport experiments. […]
Apical control wells containing 1.5 mL TM with tritiated mannitol (^3H-mannitol, 1 μCi/mL; Dupont NEN Research Products, #NET-101, Boston, Mass.) are analyzed separately for counts per minute (cpm) of tritium to test the integrity of the MDCK cell monolayers. […]

[2] = test system: Candida albicans SLU-1; experiment: Radial diffusion assay; format: cell-based; settings: 30 mm^2 area of growth inhibition, calculated by PROBIT analysis
Procedure: In the radial diffusion assay procedures, the CA-1 cultures and derivatized peptide solutions were prepared as in the broth microdilution assay procedure described above, i.e., CA-1 was grown to exponential phase in SDB. Ten (10) mL of molten underlayer agarose comprising 3% Sabouraud Dextrose broth, 1% agarose (Pharmacia, Piscataway, N.J.), 0.02% Tween 20, and 10 mM sodium phosphate at pH 7.4, was added to polystyrene tubes and maintained in a 56° C. water bath until the addition of yeast. Tubes were cooled to approximately 45° C., yeast were added to give a final concentration of 1×10^6 CFU/mL, and the tubes were mixed again by inverting. The contents were poured into leveled, square petri dishes and distributed evenly. […] A series of wells were punched into the hardened agarose using a sterile 3 mm punch attached to a vacuum apparatus to achieve a uniform, 3 mm diameter well.
Derivatized peptide sequences to be assayed were 2-fold serially diluted in 10 mM Dulbecco's PBS (D-PBS) starting from a concentration of approximately […]. Five μL of each dilution were added to each well and the plates were incubated at 37° C. for 3 hours to allow for complete diffusion of the test compounds. An overlayer of 10 mL of molten agarose comprising 6% Sabouraud Dextrose broth, 1% agarose, and 10 mM sodium phosphate, pH 7.4, (at approximately 45° C.) was then added and plates were incubated overnight at 37° C. Following this overnight incubation, a dilute Coomassie solution was poured into the plates and allowed to stain for 24 hours to enhance visualization of the zones.
Clear zones of growth inhibition around each well were measured with calipers. The actual area of growth inhibition (mm^2) was calculated by subtracting the area of the well. Table II below sets out the results of the radial diffusion assays for a series of tested peptide-based constructs in terms of the number of picomoles (pmol) of compound required to establish a 30 mm^2 area of growth inhibition of Candida albicans SLU-1 calculated by PROBIT analysis (e.g., calculated from regression of the linear portion of log-concentration dose-response curve, log pmol/well vs. net area of inhibition).

CC[C@@H](C)[C@@H](NC(=O)[C@@H](CC(C)C)NC(=O)[C@@H](Cc1c[nH]c2ccccc12)NC(=O)[C@@H](CCCCN)NC(=O)c1ccccc1O)C(=O)N[C@H](CCC(N)=O)C(=O)N[C@H](CC(C)C)C(=O)N[C@H](Cc1ccccc1)C(=O)N[C@H](Cc1c[nH]cn1)C(=O)N[C@H](CCCCN)C(=O)N[C@H](CCCCN)C(N)=O [XMP.560]
cell absorption in MDCK cell screening assays [1]: 2%
In Vitro Oral Availablity Screening (%) Forward ([1]; apical to basolateral, 2.5 hours, donor ~100 μg/mL): ≧2%
In Vitro Oral Availablity Screening (%) Efflux ([1]; basolateral to apical, 2.5 hours, donor ~100 μg/mL): ≧2%
Radial Diffusion (pmol to achieve 30 mm^2 zone C. albicans SLU1) [2]: 451 pmol
